The subject of this experiment is infected PBMCs (VSV-G pseudotyped HIV virus VSV-G/pNLG1-P2A-ΔEnv). Nature of the experiment: cells. In kind it is cell-based, human. The note with it: Homo sapiens, PBMC, read-out: TACK EC50.

The EC50 is the concentration giving half of the maximal effect. As for `Cc1nc(N)c(Cn2cnc(C(F)(F)C(F)F)c(Oc3cc(C(F)F)cc(C#N)c3C)c2=O)c(=O)[nH]1` [Example 59, 3-((1-((4-amino-2-methyl-6-oxo-1,6-dihydropyrimidin-5-yl)methyl)-6-oxo-4-(1,1,2,2-tetrafluoroethyl)-1,6-dihydropyrimidin-5-yl)oxy)-5-(difluoromethyl)-2-methylbenzonitrile], the EC50 was determined as 135 nM.

On to `Cc1nc(C)c(Cn2cnc(C(F)(F)C(F)(F)F)c(Oc3cc(Br)cc(C#N)c3Cl)c2=O)c(=O)[nH]1` [Example 82, 5-bromo-2-chloro-3-((1-((2,4-dimethyl-6-oxo-1,6-dihydro-pyrimidin-5-yl)methyl)-6-oxo-4-(perfluoroethyl)-1,6-dihydro-pyrimidin-5-yl)oxy)benzonitrile], for which the EC50 is 531 nM.

Regarding `Cc1nc(C)c(Cn2cnc(C(C)(F)F)c(Oc3c(C)cc(C#N)cc3C)c2=O)c(=O)[nH]1` [Example 11, 4-((4-(1,1-difluoroethyl)-1-((2,4-dimethyl-6-oxo-1,6-dihydropyrimidin-5-yl)methyl)-6-oxo-1,6-dihydropyrimidin-5-yl)oxy)-3,5-dimethylbenzonitrile], the EC50 stood at 267 nM.

With `Cc1nc(C)c(Cn2cnc(C(F)(F)C(F)(F)F)c(Oc3cccc(C#N)c3C)c2=O)c(=O)[nH]1` [Example 74, 3-((1-((2,4-dimethyl-6-oxo-1,6-dihydropyrimidin-5-yl)methyl)-6-oxo-4-(perfluoroethyl)-1,6-dihydropyrimidin-5-yl)oxy)-2-methylbenzonitrile], the EC50 came out at 484 nM.

Consider `Cc1nc(C(F)F)c(Cn2cnc(C(F)(F)C(F)(F)F)c(Oc3cc(C(F)F)cc(C#N)c3C)c2=O)c(=O)[nH]1` [Example 65, 5-(difluoromethyl)-3-((1-((4-(difluoromethyl)-2-methyl-6-oxo-1,6-dihydropyrimidin-5-yl)methyl)-6-oxo-4-(perfluoroethyl)-1,6-dihydropyrimidin-5-yl)oxy)-2-methylbenzonitrile], for which the half-maximal effective concentration (EC50) stood at 382 nM.

In the case of `Cc1nc(C)c(Cn2cnc(C(C)(F)F)c(Oc3cc(Cl)cc(C#N)c3Cl)c2=O)c(=O)[nH]1` [Example 3, 2,5-dichloro-3-((4-(1,1-difluoroethyl)-1-((2,4-dimethyl-6-oxo-1,6-dihydropyrimidin-5-yl)methyl)-6-oxo-1,6-dihydropyrimidin-5-yl)oxy)benzonitrile], the EC50 was found to be 417 nM.

In the case of `Cc1nc(N)c(Cn2cnc(C(F)(F)C(F)(F)F)c(Oc3cc(C(F)F)cc(C#N)c3C)c2=O)c(=O)[nH]1` [Example 37, 3-((1-((4-amino-2-methyl-6-oxo-1,6-dihydropyrimidin-5-yl)methyl)-6-oxo-4-(perfluoroethyl)-1,6-dihydropyrimidin-5-yl)oxy)-5-(difluoromethyl)-2-methylbenzonitrile], the EC50 worked out at 114 nM.

As to `CCc1cc(C#N)c(F)c(Oc2c(C(F)(F)C(F)F)ncn(Cc3c(C)nc(C)[nH]c3=O)c2=O)c1` [Example 42, 3-((1-((2,4-dimethyl-6-oxo-1,6-dihydropyrimidin-5-yl)methyl)-6-oxo-4-(1,1,2,2-tetrafluoroethyl)-1,6-dihydropyrimidin-5-yl)oxy)-5-ethyl-2-fluorobenzonitrile], the concentration for a half-maximal effect (EC50) was found to be 308 nM.

Turning to `Cc1nc(C)c(Cn2cnc(C(F)(F)C(F)F)c(Oc3cc(C(F)F)cc(C#N)c3Cl)c2=O)c(=O)[nH]1` [Example 21, 2-chloro-5-(difluoromethyl)-3-((1-((2,4-dimethyl-6-oxo-1,6-dihydropyrimidin-5-yl)methyl)-6-oxo-4-(1,1,2,2-tetrafluoroethyl)-1,6-dihydropyrimidin-5-yl)oxy)benzonitrile], the EC50 was 132 nM.

As for `Cc1nc(C)c(Cn2cnc(C(C)(F)F)c(Oc3cc(Cl)cc(C#N)c3C)c2=O)c(=O)[nH]1` [Example 4, 5-chloro-3-((4-(1,1-difluoroethyl)-1-((2,4-dimethyl-6-oxo-1,6-dihydropyrimidin-5-yl)methyl)-6-oxo-1,6-dihydropyrimidin-5-yl)oxy)-2-methylbenzonitrile], the EC50 came out at 412 nM.

`Cc1nc(C)c(Cn2cnc(C(F)(F)C(F)F)c(Oc3cc(Cl)cc(C#N)c3N)c2=O)c(=O)[nH]1` [Example 27, 2-amino-5-chloro-3-((1-((2,4-dimethyl-6-oxo-1,6-dihydropyrimidin-5-yl)methyl)-6-oxo-4-(1,1,2,2-tetrafluoroethyl)-1,6-dihydropyrimidin-5-yl)oxy)benzonitrile]: the EC50 was determined as 451 nM.

With `Cc1nc(C)c(Cn2cnc(C(C)F)c(Oc3cc(Cl)cc(C#N)c3Cl)c2=O)c(=O)[nH]1` (single isomer, unassigned) [Example 34, (S) or (R)-2,5-dichloro-3-((1-((2,4-dimethyl-6-oxo-1,6-dihydropyrimidin-5-yl)methyl)-4-(1-fluoroethyl)-6-oxo-1,6-dihydropyrimidin-5-yl)oxy)benzonitrile], the EC50 came out at 474 nM.

On to `Cc1nc(C)c(Cn2cnc(C(C)(F)F)c(Oc3cc(C(F)F)cc(C#N)c3C)c2=O)c(=O)[nH]1` [Example 6, 3-((4-(1,1-difluoroethyl)-1-((2,4-dimethyl-6-oxo-1,6-dihydropyrimidin-5-y1)methyl)-6-oxo-1,6-dihydropyrimidin-5-yl)oxy)-5-(difluoromethyl)-2-methylbenzonitrile], for which the concentration for a half-maximal effect (EC50) was 201 nM.

For `Cc1nc(C)c(Cn2cnc(C(C)(F)F)c(Oc3c(C)cc(C#N)cc3C(F)(F)F)c2=O)c(=O)[nH]1` [Example 16, 4-((4-(1,1-difluoroethyl)-1-((4-hydroxy-2,6-dimethylpyrimidin-5-yl)methyl)-6-oxo-1,6-dihydropyrimidin-5-yl)oxy)-3-methyl-5-(trifluoromethyl)benzonitrile], the EC50 amounted to 199 nM.

In the case of `Cc1ncc(Cn2cnc(C(F)(F)C(F)F)c(Oc3cc(C#N)cc(C(F)F)c3)c2=O)c(=O)[nH]1` [Example 2, 3-(difluoromethyl)-5-((1-((2-methyl-6-oxo-1,6-dihydropyrimidin-5-yl)methyl)-6-oxo-4-(1,1,2,2-tetrafluoroethyl)-1,6-dihydropyrimidin-5-yl)oxy)benzonitrile], the EC50 came out at 411 nM.

With `Cc1ncc(Cn2cnc(C(F)(F)C(F)F)c(Oc3cc(C(F)F)cc(C#N)c3C)c2=O)c(=O)[nH]1` [Example 70, 5-(difluoromethyl)-2-methyl-3-((1-((2-methyl-6-oxo-1,6-dihydropyrimidin-5-yl)methyl)-6-oxo-4-(1,1,2,2-tetra-fluoroethyl)-1,6-dihydropyrimidin-5-yl)oxy)benzonitrile], the EC50 was determined as 203 nM.

As for `Cc1c(C#N)cc(C(F)F)cc1Oc1c(C(F)(F)C(F)F)ncn(Cc2cnc(-c3cnn(C)c3)[nH]c2=O)c1=O` [Example 47, 5-(difluoromethyl)-2-methyl-3-((1-((2-(1-methyl-1H-pyrazol-4-yl)-6-oxo-1,6-dihydropyrimidin-5-yl)methyl)-6-oxo-4-(1,1,2,2-tetrafluoroethyl)-1,6-dihydropyrimidin-5-yl)oxy)benzonitrile], the half-maximal effective concentration (EC50) is 394 nM.

As for `Cc1nc(C)c(Cn2cnc(C(F)(F)F)c(Oc3cc(Cl)cc(C#N)c3F)c2=O)c(=O)[nH]1` [Example 92, 5-chloro-3-((1-((2,4-dimethyl-6-oxo-1,6-dihydropyrimidin-5-yl)methyl)-6-oxo-4-(trifluoromethyl)-1,6-dihydropyrimidin-5-yl)oxy)-2-fluorobenzonitrile], the EC50 turned out to be 284 nM.

As for `COc1c(C#N)cc(C(F)F)cc1Oc1c(C(F)(F)C(F)F)ncn(Cc2c(C)nc(C)[nH]c2=O)c1=O` [Example 10, 5-(difluoromethyl)-3-((1-((2,4-dimethyl-6-oxo-1,6-dihydropyrimidin-5-y1)methyl)-6-oxo-4-(1,1,2,2-tetrafluoroethyl)-1,6-dihydropyrimidin-5-y1)oxy)-2-methoxybenzonitrile], the EC50 is 146 nM.

With `Cc1nc(C)c(Cn2cnc(C(F)(F)C(F)(F)F)c(Oc3c(C)cc(C#N)cc3C)c2=O)c(=O)[nH]1` [Example 78, 4-((1-((2,4-dimethyl-6-oxo-1,6-dihydropyrimidin-5-yl)methyl)-6-oxo-4-(perfluoroethyl)-1,6-dihydropyrimidin-5-yl)oxy)-3,5-dimethylbenzonitrile], the EC50 stood at 156 nM.

For the compound `Cc1cc(C#N)cc(C)c1Oc1c(C(F)(F)C(F)F)ncn(Cc2c(C)nc(CCCO)[nH]c2=O)c1=O` [Example 50, 4-((1-((2-(3-hydroxypropyl)-4-methyl-6-oxo-1,6-dihydropyrimidin-5-yl)methyl)-6-oxo-4-(1,1,2,2-tetrafluoroethyl)-1,6-dihydropyrimidin-5-yl)oxy)-3,5-dimethylbenzonitrile], the half-maximal effective concentration (EC50) came to 250 nM.

The values above are taken from patent US12258329B2 (Merck Sharp & Dohme LLC, priority 2018, dated 2025).
